Measurements: the NIST ThermoML archive (doi:10.1016/j.fluid.2005.03.019)

Experiments:
[1] = refractive index (Na D-line) (dimensionless); conditions: 293.1 K; 101.33 kPa; Liquid; Standard Abbe refractometry
[2] = Liquid

CC(C)COC(=O)C1CCCCC1C(=O)OCC(C)C (stereo unspecified) [diisobutyl hexahydrophthalate]
Conditions	refractive index
[1]	1.453

[2]
Conditions	vapor or sublimation pressure [kPa]
434.4 K	0.732
448.2 K	1.539
463.3 K	2.912
478.7 K	4.813
486.4 K	6.342
491.5 K	7.672
500.3 K	10.2
506.6 K	12.5
509.6 K	13.99
515 K	16.31
519.5 K	18.67
524.1 K	21.3
527.8 K	23.69
534.8 K	28.61
538.2 K	30.94
